Results reported in US12590070B2, “Adamantane derivatives as inhibitors of focal adhesion kinase” (SAMJIN PHARMACEUTICAL CO., LTD., priority 2019, dated 2026).

Legend:
[1] = target: T1, FAK (Homo sapiens, UniProt Q05397); experiment: FAK [pY397] ELISA in MDA-MB-231 cells; format: cell-based; set-up: endogenous in cells; host or cells: MDA-MB-231; conditions: MDA-MB-231, treated for one hour, Table 2; read-out: FAK inhibitory activity (IC50)
Method: Briefly, an enzyme-linked immunosorbent assay test was performed according to the manufacturer's instructions by using the FAK (Phospho) [pY397] Human ELISA Kit (Thermo Fisher Scientific, KH00441) after dispensing 1×10^6 MDA-MB-231 cells into each well of a 6-well plate, inducing cell stabilization for 24 hours, and treating each compound at different concentrations (o, 1, 5, 10, 50, 100, 500, 1000 nM) for one hour.

[2] = target: T2, InsR (Homo sapiens, UniProt P06213); experiment: ADP-Glo Kinase Assay, InsR; format: biochemical; conditions: ADP-Glo Kinase Assay Kit
T2 construct: purchased Promega V9401
T2 sequence (P06213 28-1382): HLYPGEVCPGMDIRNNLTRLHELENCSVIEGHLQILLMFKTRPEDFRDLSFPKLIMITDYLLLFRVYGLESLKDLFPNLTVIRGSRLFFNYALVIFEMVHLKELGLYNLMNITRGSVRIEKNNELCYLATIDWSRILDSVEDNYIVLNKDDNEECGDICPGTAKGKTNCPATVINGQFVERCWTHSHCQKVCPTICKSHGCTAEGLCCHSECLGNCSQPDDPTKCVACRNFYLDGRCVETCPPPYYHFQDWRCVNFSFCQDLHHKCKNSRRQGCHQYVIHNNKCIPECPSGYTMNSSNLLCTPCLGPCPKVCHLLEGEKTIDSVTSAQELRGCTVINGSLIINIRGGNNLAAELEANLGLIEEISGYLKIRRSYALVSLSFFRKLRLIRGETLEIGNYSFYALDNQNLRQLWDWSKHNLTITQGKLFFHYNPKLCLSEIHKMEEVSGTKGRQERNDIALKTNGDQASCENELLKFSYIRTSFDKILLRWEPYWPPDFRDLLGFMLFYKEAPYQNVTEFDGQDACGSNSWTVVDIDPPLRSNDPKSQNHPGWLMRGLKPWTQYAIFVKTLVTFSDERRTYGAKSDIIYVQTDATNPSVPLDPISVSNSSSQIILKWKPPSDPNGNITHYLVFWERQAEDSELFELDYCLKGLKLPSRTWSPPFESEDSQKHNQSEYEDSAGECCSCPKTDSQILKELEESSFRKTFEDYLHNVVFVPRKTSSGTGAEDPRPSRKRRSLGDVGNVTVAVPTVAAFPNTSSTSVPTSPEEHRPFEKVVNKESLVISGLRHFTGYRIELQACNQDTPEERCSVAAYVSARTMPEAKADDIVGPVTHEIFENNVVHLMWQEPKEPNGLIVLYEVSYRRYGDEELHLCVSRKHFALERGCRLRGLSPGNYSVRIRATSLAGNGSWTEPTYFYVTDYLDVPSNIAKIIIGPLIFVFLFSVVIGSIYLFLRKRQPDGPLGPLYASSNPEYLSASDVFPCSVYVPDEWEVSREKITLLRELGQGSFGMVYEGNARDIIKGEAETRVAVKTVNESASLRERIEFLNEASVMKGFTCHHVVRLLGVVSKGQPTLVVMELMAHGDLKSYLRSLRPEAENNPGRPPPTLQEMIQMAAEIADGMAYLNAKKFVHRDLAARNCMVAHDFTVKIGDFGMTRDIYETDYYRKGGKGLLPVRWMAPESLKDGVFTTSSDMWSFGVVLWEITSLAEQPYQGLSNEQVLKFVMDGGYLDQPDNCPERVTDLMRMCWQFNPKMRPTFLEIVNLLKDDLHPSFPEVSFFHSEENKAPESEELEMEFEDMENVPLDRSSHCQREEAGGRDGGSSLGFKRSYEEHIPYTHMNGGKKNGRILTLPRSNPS
Method: (§1) Briefly, a kinase test was performed and quantified according to the manufacturer's instructions after treating the adamantane derivative compound of the present invention by using the ADP-Glo™ Kinase Assay Kit (FAK, Promega, V1971; Pyk2, Promega, V4083; InsR, Promega, V9401) containing each kinase of Promega.

[3] = target: T3, Pyk2 (Homo sapiens, UniProt Q14289); experiment: ADP-Glo Kinase Assay, Pyk2; format: biochemical; conditions: ADP-Glo Kinase Assay Kit
T3 construct: purchased Promega V4083
T3 sequence (Q14289 whole entry): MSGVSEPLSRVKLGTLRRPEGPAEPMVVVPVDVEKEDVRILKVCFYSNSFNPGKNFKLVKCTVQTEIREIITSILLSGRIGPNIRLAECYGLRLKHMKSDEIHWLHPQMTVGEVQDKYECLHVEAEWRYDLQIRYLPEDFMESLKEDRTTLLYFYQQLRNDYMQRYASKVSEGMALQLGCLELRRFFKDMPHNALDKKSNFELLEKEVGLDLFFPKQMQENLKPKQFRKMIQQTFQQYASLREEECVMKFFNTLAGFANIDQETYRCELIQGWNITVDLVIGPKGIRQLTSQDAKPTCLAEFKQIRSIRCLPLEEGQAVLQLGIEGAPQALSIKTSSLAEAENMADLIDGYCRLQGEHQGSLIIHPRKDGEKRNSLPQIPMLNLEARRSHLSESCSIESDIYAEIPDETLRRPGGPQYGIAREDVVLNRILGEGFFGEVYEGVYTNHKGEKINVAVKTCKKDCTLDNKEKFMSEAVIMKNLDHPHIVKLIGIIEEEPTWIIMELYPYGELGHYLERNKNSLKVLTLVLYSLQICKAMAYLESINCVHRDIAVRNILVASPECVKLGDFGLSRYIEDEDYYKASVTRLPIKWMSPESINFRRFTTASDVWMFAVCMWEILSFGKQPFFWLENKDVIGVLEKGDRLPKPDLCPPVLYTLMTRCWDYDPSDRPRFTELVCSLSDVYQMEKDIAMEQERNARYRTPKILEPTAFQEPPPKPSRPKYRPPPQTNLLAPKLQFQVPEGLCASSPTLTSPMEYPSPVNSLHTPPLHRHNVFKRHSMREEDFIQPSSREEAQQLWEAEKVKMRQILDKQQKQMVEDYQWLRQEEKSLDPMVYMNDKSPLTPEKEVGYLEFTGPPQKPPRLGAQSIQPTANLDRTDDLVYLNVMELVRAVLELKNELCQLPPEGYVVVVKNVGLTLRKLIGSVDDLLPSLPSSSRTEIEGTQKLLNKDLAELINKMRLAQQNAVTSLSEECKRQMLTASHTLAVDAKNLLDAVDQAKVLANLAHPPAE
Method: as §1

[4] = target: T1, FAK; experiment: ADP-Glo Kinase Assay, FAK; format: biochemical; set-up: purchased Promega V1971; conditions: ADP-Glo Kinase Assay Kit
Method: as §1

[5] = preclinical study; cited from earlier work

T1 sequence (Q05397 whole entry): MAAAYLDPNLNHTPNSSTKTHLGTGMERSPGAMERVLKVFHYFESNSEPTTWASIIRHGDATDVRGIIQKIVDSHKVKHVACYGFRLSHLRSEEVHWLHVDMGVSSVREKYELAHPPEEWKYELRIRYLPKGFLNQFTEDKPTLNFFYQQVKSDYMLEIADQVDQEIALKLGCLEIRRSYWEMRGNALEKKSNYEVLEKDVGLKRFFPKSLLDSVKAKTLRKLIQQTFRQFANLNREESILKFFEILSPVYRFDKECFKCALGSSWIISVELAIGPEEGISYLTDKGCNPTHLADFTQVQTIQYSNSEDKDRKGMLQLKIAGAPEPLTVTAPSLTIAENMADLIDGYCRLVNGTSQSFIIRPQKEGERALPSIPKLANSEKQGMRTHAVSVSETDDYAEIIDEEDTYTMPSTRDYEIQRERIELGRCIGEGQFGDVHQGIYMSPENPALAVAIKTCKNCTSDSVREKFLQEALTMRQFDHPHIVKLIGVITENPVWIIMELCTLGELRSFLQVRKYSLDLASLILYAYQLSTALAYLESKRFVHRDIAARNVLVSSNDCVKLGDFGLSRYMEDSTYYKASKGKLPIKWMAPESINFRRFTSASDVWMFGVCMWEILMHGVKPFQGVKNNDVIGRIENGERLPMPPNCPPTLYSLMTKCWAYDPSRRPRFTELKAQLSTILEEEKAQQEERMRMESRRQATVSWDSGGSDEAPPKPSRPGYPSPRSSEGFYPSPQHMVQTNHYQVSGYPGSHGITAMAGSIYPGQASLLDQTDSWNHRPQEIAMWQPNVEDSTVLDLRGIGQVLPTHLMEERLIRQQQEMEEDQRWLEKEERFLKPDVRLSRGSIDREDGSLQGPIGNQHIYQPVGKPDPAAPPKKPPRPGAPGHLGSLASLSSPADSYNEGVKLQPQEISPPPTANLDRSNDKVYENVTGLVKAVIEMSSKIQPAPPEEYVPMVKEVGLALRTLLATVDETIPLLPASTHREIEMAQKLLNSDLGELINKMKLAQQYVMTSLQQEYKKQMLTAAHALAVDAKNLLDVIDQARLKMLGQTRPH

IC50 [1] [nM]	IC50 [2] [nM]	IC50 [3] [nM]	IC50 [4] [nM]	Structure (SMILES)	side effects [5]
83	> 10000	124	82.9	CNC(=O)c1cccc(C)c1Nc1nc(Nc2ccc(N[C@H]3C4CC5CC3C[C@](O)(C5)C4)cc2OC)ncc1C(F)(F)F [Compound 1, 2-((2-((4-(((trans)-5-hydroxyadamantan-2-yl)amino)-2-methoxyphenyl)amino)-5-(trifluoromethyl)pyrimidin-4-yl)amino)-N,3-dimethylbenzamide]	
111	> 10000		206	CNC(=O)c1cccc(C)c1Nc1nc(Nc2ccc(NC3C4CC5CC(C4)CC3C5)cc2OC)ncc1C(F)(F)F (stereo not drawn) [Compound 2, 2-((2-((4-(adamantan-2-ylamino)-2-methoxyphenyl)amino)-5-(trifluoromethyl)pyrimidin-4-yl)amino)-N,3-dimethylbenzamide]	
92	> 10000	256	154	CNC(=O)c1cccc(C)c1Nc1nc(Nc2ccc(N3CCN(C4C5CC6CC(C5)CC4C6)CC3)cc2OC)ncc1C(F)(F)F (stereo not drawn) [Compound 3, 2-((2-((4-(4-(adamantan-2-yl)piperazin-1-yl)-2-methoxyphenyl)amino)-5-(trifluoromethyl)pyrimidin-4-yl)amino)-N,3-dimethylbenzamide]	
32	4680		69.9	CNC(=O)c1cccc(C)c1Nc1nc(Nc2ccc(N3CCN([C@H]4C5CC6CC4C[C@@](O)(C6)C5)CC3)cc2OC)ncc1C(F)(F)F [Compound 5, 2-((2-((4-(4-((cis)-5-hydroxyadamantan-2-yl)piperazin-1-yl)-2-methoxyphenyl)amino)-5-(trifluoromethyl)pyrimidin-4-yl)amino)-N,3-dimethylbenzamide]	
118	> 10000	157	96.5	CNC(=O)c1cccc(C)c1Nc1nc(Nc2ccc(NC3CCN(C4C5CC6CC(C5)CC4C6)CC3)cc2OC)ncc1C(F)(F)F (stereo not drawn) [Compound 6, 2-((2-((4-((1-(adamantan-2-yl)piperidin-4-yl)amino)-2-methoxyphenyl)amino)-5-(trifluoromethyl)pyrimidin-4-yl)amino)-N,3-dimethylbenzamide]	
38	6150	108	46.9	CNC(=O)c1cccc(C)c1Nc1nc(Nc2ccc(NC3CCN([C@H]4C5CC6CC4C[C@](O)(C6)C5)CC3)cc2OC)ncc1C(F)(F)F [Compound 7, 2-((2-((4-((1-((trans)-5-hydroxyadamantan-2-yl)piperidin-4-yl)amino)-2-methoxyphenyl)amino)-5-(trifluoromethyl)pyrimidin-4-yl)amino)-N,3-dimethylbenzamide]	
121	> 10000		53.3	CNC(=O)c1cccc(C)c1Nc1nc(Nc2ccc(NC3CCN([C@H]4C5CC6CC4C[C@@](O)(C6)C5)CC3)cc2OC)ncc1C(F)(F)F [Compound 8, 2-((2-((4-((1-((cis)-5-hydroxyadamantan-2-yl)piperidin-4-yl)amino)-2-methoxyphenyl)amino)-5-(trifluoromethyl)pyrimidin-4-yl)amino)-N,3-dimethylbenzamide]	
382	> 10000		96.7	CNC(=O)c1cccc(C)c1Nc1nc(Nc2ccc(OC34CC5CC(C3)C(=O)C(C5)C4)cc2OC)ncc1C(F)(F)F [Compound 10, 2-((2-((2-methoxy-4-((4-oxoadamantan-1-yl)oxy)phenyl)amino)-5-(trifluoromethyl)pyrimidin-4-yl)amino)-N,3-dimethylbenzamide]	
118	> 10000	231	65.1	CNC(=O)c1cccc(C)c1Nc1nc(Nc2ccc(OC34CC5CC(C3)C(O)C(C5)C4)cc2OC)ncc1C(F)(F)F (stereo not drawn) [Compound 11, 2-((2-((4-((4-hydroxyadamantan-1-yl)oxy)-2-methoxyphenyl)amino)-5-(trifluoromethyl)pyrimidin-4-yl)amino)-N,3-dimethylbenzamide]	
153			98.9	CNC(=O)c1cccc(C)c1Nc1nc(Nc2ccc(OC3C4CC5CC3CC(C(=O)N3CCN(C)CC3)(C5)C4)cc2OC)ncc1C(F)(F)F (stereo not drawn) [Compound 20, 2-((2-((2-methoxy-4-((5-(4-methylpiperazin-1-carbonyl)adamantan-2-yl)oxy)phenyl)amino)-5-(trifluoromethyl)pyrimidin-4-yl)amino)-N,3-dimethylbenzamide]	
234			77.5	CNC(=O)c1cccc(C)c1Nc1nc(Nc2ccc(NC3C4CC5CC3CC(C(=O)N3CCN(C)CC3)(C5)C4)cc2OC)ncc1C(F)(F)F (stereo not drawn) [Compound 23, 2-((2-((2-methoxy-4-((5-(4-methylpiperazin-1-carbonyl)adamantan-2-yl)amino)phenyl)amino)-5-(trifluoromethyl)pyrimidin-4-yl)amino)-N,3-dimethylbenzamide]	
27	> 10000	90.6	45.5	CNC(=O)c1cccc(C)c1Nc1nc(Nc2ccc(NC(=O)C34CC5CC(C3)C(N3CCOCC3)C(C5)C4)cc2OC)ncc1C(F)(F)F (stereo not drawn) [Compound 25, N-(3-methoxy-4-((4-((2-methyl-6-(methylcarbamoyl)phenyl)amino)-5-(trifluoromethyl)pyrimidin-2-yl)amino)phenyl)-4-morpholinoadamantan-1-carboxamide]	
55	> 10000	81.4	39.5	CNC(=O)c1cccc(C)c1Nc1nc(Nc2ccc(NC(=O)[C@]34CC5CC(C3)[C@@H](N3CC[C@H](NC(C)=O)C3)C(C5)C4)cc2OC)ncc1C(F)(F)F [Compound 27, (trans)-4-((S)-3-acetamidopyrrolidin-1-yl)-N-(3-methoxy-4-((4-((2-methyl-6-(methylcarbamoyl)phenyl)amino)-5-(trifluoromethyl)pyrimidin-2-yl)amino)phenyl) adamantan-1-carboxamide]	
				CNC(=O)c1ccccc1Nc1nc(Nc2ccc(N3CCOCC3)cc2OC)ncc1Cl [TAE226]	serious side effects such as unexpected inhibition of glucose metabolism, a decrease in blood concentration
